In patent publication US20220249525A1, “Fatty Acid Compounds for Prevention and Treatment of Neurodegenerative Disorders” (T OMEGA AS, priority 2019, published 2022):

Tests used:
HuH-7 cells = assay: WST-1 cell viability assay in HuH-7 cells; format: cell-based
Procedure: The fatty acids (FAs) TTA, tr-TTA, N-TTA, tr-N-TTA and (PA) were complexed with FBS following the same procedure, differing only in final stock concentration, due to variation in solubility. Approximately 0.07 g of FA was weighed in a 10 ml sterile serum tube (BD Vacutainer®, catalog no. 368430) and dissolved in sterile filtrated 0.1 M sodium hydroxide (NaOH) of a volume giving 25 mM FA, controls without FA were made, containing only NaOH and FBS. A syringe (Sterican®, catalog no. 4657577) was pierced through the rubber cap of the serum tube, and the tube was placed in an 80° C. water bath until the FAs were dissolved. Each FA-solution was then diluted in inactivated FBS to stock concentration 1 mM (N-TTA, tr-N-TTA), and 2 mM by adding the FA to a volume of 100% FBS after heating the FBS to 45° C. in a water bath. The transfer of FA to FBS had to be executed controlled and swiftly to avoid the formation of precipitates. If any precipitates in the solution were visible, the FA and a new volume of FBS were reheated, and the procedure performed again. Following successful complexation, the stock solutions were stored at −20° C. in 1 ml aliquots (CryoPure tube, Sarstedt AG & Co, Nümbrecht, Germany).
The WST-1 cell proliferation assay was performed using the kit from Roche (table 4.2.) and its accompanying procedure (version 16, February 2011) (134). The number of cells seeded to each well in the 96-well plates (Corning Inc., catalog no. 353072) varied depending on the treatment time and cell type (table 3.).
Cell suspension and medium were then transferred to each well in a volume of 100 μl in total. Subsequently, the plates were incubated for 24 hours to make the cells settle. The next day, 100 μl with FA complexed with FBS or diluted in DMSO was added to row A or B in the 96-well plate to give a defined concentration. The solution was then mixed with a pipette, and 100 μl of the medium with FA was transferred to the next well in the same column, mixed by pipetting up and down at least five times before 100 μl was transferred again to the next well in the column. This procedure was repeated until the second last, or last well in each column was reached, making a series of two-fold dilution of the FAs in the cell medium. Two parallels were performed for every treatment per run. After the addition of FAs, the plates were incubated for 24-96 hours depending on the length of the treatment.
Following the FA-treatment, the cells were studied under a microscope to ensure that visual observations matched the measured absorbance and cell activity in the assay. Subsequently, 10 μl WST-1 reagent was added to each well, and the plates were incubated for 3 hours. Due to high activity in the HuH-7 cell line, the WST-1 reagent was diluted 1:1 with PBS. Before the measurement of absorbance, the plates were placed on a shaker for 1 minute ensuring thoroughly mixing of the wells. The plates were then put straight into the spectrophotometer (SpectraMax Plus 384 Microplate Reader, Molecular Devices Corporation, San Jose, Calif., USA) to perform the measurements. The accompanying software was used (SoftMax Pro, Molecular Devices Corporation, San Jose, Calif., USA) to obtain the results. The absorbance of the samples was measured at 450 nm, and the reference wavelength was set to 650 nm. For each well, the measured absorption at 650 nm was subtracted from the absorption at 450 nm. The measured absorbance for the treated cells was then compared to the controls (blank) containing only cells and growth medium.

[1] = tested on: HeLaNRF1/c4 reporter cells; assay: Gene expression (qPCR) in HeLaNRF1/c4 reporter cells; format: cell-based; settings: long-term treatment
Procedure: The HeLaNRF1/c4 reporter cells were employed to investigate effects of the modified fatty acids on NRF1-regulated mitochondrial biogenesis. The cells (250,000) were seeded in T75 flasks and incubated for 3 hours to allow attachment. The compounds were dissolved in DMSO and diluted in culture medium to provide the final concentration. DMSO at a concentration equivalent to the highest compound concentration was added to control cultures. Resveratrol and AICAR were used as positive controls. Resveratrol has not previously been tested in this reporter model, but we found it relevant to include it for purposes of experimental and mechanistic comparisons. After 3 days of treatment the media was replaced with fresh media containing the corresponding compound. On day 5, the cells were harvested and the cultures split into three fractions: One fraction was used for detection of mitoGFP expression by flow cytometry, to assess effects on NRF-1 regulated mitochondrial biogenesis. Flow cytometry analysis was performed as previously described. Another fraction was used for extraction of RNA and subsequent gene expression analysis using quantitative PCR (see below). The last fraction was employed to investigate effects on mitochondrial respiratory function by extracellular flux analysis (described above). The experiment was replicated three times.
Total RNA was extracted from harvested cells (RNAeasy kit Qiagen, Hilden, Germany). The RNA content was quantified on Nanodrop 1000 Spectrophotometer (Thermo Scientific). From 1 μg total RNA, cDNA was synthesized using High-Capacity Reverse Transcription Kit (Applied Biosystems, Carlsbad, Calif., US). Gene quantification was done using TaqMan probes for gene expression assays (Applied Biosystems). Probes used were: PGC1α (PPARG coactivator 1α), Hs00173304_m1; HIF1α (hypoxia inducible factor 1α), Hs00153153_m1; PDK1 (pyruvate dehydrogenase kinase 1), Hs01561847_m1; PDK4, (pyruvate dehydrogenase kinase 4), Hs01037712_m1; SIRT4 (sirtuin 4) Hs01015516_g1; ACOX1 (acyl-CoA oxidase 1) Hs01074241_m1; as reference genes, we used; Eukaryotic 18S rRNA Hs99999901_s1; actin beta Hs99999903_m1. Fold change was calculated as geometric mean of ΔΔCt of the two reference genes.

[2] = 4 week high-fat diet study, body weight, adipose tissue, plasma glucose and cholesterol; format: in vivo, C57BL/6 mice; settings: mice, N-TTA 750 mg/kg or triple-N-TTA 350 mg/kg body weight, 4 weeks
Procedure: This animal study was conducted according to the Guidelines for the Care and Use of Experimental Animals, and the protocol was approved by the Norwegian Food Authorities. 7 to 8-weeks old male C57BL/6 mice, were obtained from Janvier Labs. After one week of acclimatization, they were divided into 3 groups of 7 animals. One group was fed a control high-fat (25 w/v) diet while the two remaining groups were fed a high-fat diet supplemented with either N-TTA (750 mg/kg body weight) or triple-N-TTA (350 mg/kg body weight). After 4 weeks of feeding, the mice were anaesthetized with Isofluorane (Forane, Abbot Laboratories Ltd, Illinois, USA) inhalation under fasting conditions, and blood and liver samples were collected. […]
Glucose and lipids in plasma was measured on the Hitachi 917 system (Roche Diagnostics, GmbH, Mannheim, Germany) using kits from Roche Diagnostics or DiaSys.

SMILES: CCCCCCCCCCCCCCNCC(=O)O [N-TTA, N-tetradecylglycine]
- WST-1 activity compared to untreated cells (HuH-7 cells; 2 days, 16 μM, complexed with FBS): 116%
- WST-1 activity compared to no treatment (HuH-7 cells; 2 days, 125-250 μM): 50-60%
- WST-1 activity (HuH-7 cells; 4 days, 1000 μM): The same result was true
- PDK4 expression [1]: significantly increased
- PGC1α expression ([1]; vs control): significant increase
- LDL cholesterol (plasma) [2]: reduced
- body weight gain vs high-fat control diet [2]: significantly lower
- cholesterol esters (plasma) [2]: reduced
- epididymal white adipose tissue depot [2]: reduced in size
- free cholesterol (plasma) [2]: reduced
- perirenal white adipose tissue depot [2]: reduced in size
- total cholesterol (plasma) [2]: reduced
- blood glucose vs high-fat control diet ([2]; fasting): significantly lower
